One assay has as its system hPPAR alpha. Put plainly: Binding Assay (displacement of Radioligand from GST-hPPAR alpha). To be noted: 60 nM Radioligand. The arrangement: species or system human. The source says: Bound radioactivity eluted in the column void volume and was quantitated by liquid scintillation counting.
Assay [1] concerns PPAR alpha over PPAR gamma. Briefly: Transfection assay, selectivity for PPAR alpha over PPAR gamma (GAL4-hPPAR alpha and GAL4-hPPAR gamma). Format: cell-based, human. To be noted: CV-1 cells. The protocol: Plasmids: GAL4-hPPAR alpha chimera and UAS-tk-SPAP reporters.
Transfection assay: SPAP reporter. CV-1 cells were plated in DME medium supplemented with 10% delipidated fetal calf serum at a density of 2.4×10^4 cells per well in a 96-well plate (Costar) 16-24 h before transfection. In general, 8.0 ng of reporter plasmid, 25.0 ng of β-galactosidase expression vector (pCH 110, Pharamacia), and 2.0 ng of GAL4-hPPAR alpha or GAL4-hPPAR gamma expression vector were mixed with carrier DNA (pBluescript, Stratagene) to a total of 80 ng of DNA per well in a volume of […] optiMEM I medium (Life Technologies). To this, a second mix, containing […] optiMEM I medium and […] of LIPOFECTAMINE™ (Life Technologies), was added. After 30 min. an additional […] of optiMEM I medium were added and the combined mix was then applied to the cells. […] Alternatively, alkaline phosphatse and β-galactosidase activities were measured separately using standard protocols. Briefly, cells were lysed by adding […] 0.5% Triton X-100 to the supernatant.

In another assay the test system is Zucker lean male rats. Briefly: Diet-Induced Model of Dyslipidemia, Zucker lean male rats. The note with it: males; for NEFA: before drug 0.72. Type of assay: in vivo, rat. The source says:
(§1) Zucker lean male rats and Zucker fa/fa female rats were randomized into 3 treatment groups. The randomization was based on serum triglyceride concentration after three months on the TEKLAD high fat diet. Dosing with Example 5 or the appropriate vehicle, by oral gavage, began after 4 months of high fat feeding. Plasma glucose, lactate, serum insulin and lipid concentrations were obtained weekly, beginning on day 7 through 48 after the initiation of therapy. Metabolic data from each treatment group was collected weekly. Dexascan determinations of body mass composition obtained after 4 months on the high fat diet served as baseline. Changes in body mass composition due to therapy were determined by repeat measurements at the end of the study.
(§2) Treatment Group B Example 5 (0.1 mg/kg) dosed twice a day.
(§3) Treatment Group C Example 5 (0.3 mg/kg) dosed twice a day.

The subject of the next assay is Zucker fa/fa female rats. Put plainly: Diet-Induced Model of Dyslipidemia, Zucker fa/fa female rats. Format: in vivo, rat. To be noted: females.
Description: as §1, §2, §3

Molecules are shown by their SMILES.

For `CCCCCCCN(CCc1ccc(OC(C)(CC)C(=O)O)cc1)C(=O)Nc1ccc(F)cc1F` (centres unmarked) [Cold Radioligand, 2-(4-(2-(1-Heptyl-3-(2,4-difluorophenyl)ureido)ethyl)phenoxy)-2-methylbutanoic Acid], the “Bound radioactivity in presence of competitor” value in the assay with hPPAR alpha (10 μM competitor, 4° C., 2-3 hr, mean of triplicate, no competitor 140000) is given as 25000 dpm.

Regarding `CC(C)(Sc1ccc(CCN(CCCCC2CCCCC2)C(=O)NC2CCCCC2)cc1)C(=O)O` [Example 1, 2-(4-(2-(1-(Cyclohexanebutyl)-3-cyclohexylureido)ethyl)phenylthio)-2-methylpropionic Acid], the “activity ratio, PPAR alpha over PPAR gamma” value (from here on “activity ratio, PPAR alpha”) in assay [1] is reported as “greater than 100”.

On to `CC(C)(Sc1ccc(CCN(CCc2ccc(-c3ccccc3)cc2)C(=O)NC2CCCCC2)cc1)C(=O)O` [Example 2, 2-(4-(2-(1-(4-Biphenylethyl)-3-cyclohexylureido)ethyl)phenylthio)-2-methylpropionic Acid], for which the “activity ratio, PPAR alpha” value in assay [1] was “greater than 100”.

Turning to `CC(C)(Sc1ccc(CCN(Cc2ccc(-c3ccccc3C(F)(F)F)cc2Cl)C(=O)NC2CCCCC2)cc1)C(=O)O` [Example 3, 2-(4-(2-(1-(2-Chloro-4-(2-trifluoromethylphenyl)phenylmethyl)-3-(cyclohexyl)ureido)ethyl)phenylthio)-2-methylpropionic Acid], the “activity ratio, PPAR alpha” value in assay [1] was “greater than 100”.

`CCCCCCCN(CCc1ccc(SC(C)(C)C(=O)O)cc1)C(=O)Nc1ccc(F)cc1F` [Example 5, 2-(4-(2-(1-Heptyl-3-(2,4-difluorophenyl)ureido)ethyl)phenylthio)-2-methylpropionic Acid]: the NEFA in the assay with Zucker lean male rats (0.1 mg/kg oral gavage twice a day, Week 1, vehicle 0.85) was found to be 0.73 m Eq/L; with Zucker lean male rats (0.1 mg/kg oral gavage twice a day, Week 4, vehicle 0.65), 0.57 m Eq/L; in the assay with Zucker lean male rats (0.1 mg/kg oral gavage twice a day, Week 7, vehicle 0.60), 0.58 m Eq/L; in the assay with Zucker lean male rats (0.3 mg/kg oral gavage twice a day, Week 1, vehicle 0.85), 0.69 m Eq/L; in the assay on Zucker lean male rats (0.3 mg/kg oral gavage twice a day, Week 4, vehicle 0.65) it was 0.47 m Eq/L; in the assay on Zucker lean male rats (0.3 mg/kg oral gavage twice a day, Week 7, vehicle 0.60), 0.46 m Eq/L. Also, the NEFA was 2.47 m Eq/L in the assay on Zucker fa/fa female rats (0.1 mg/kg oral gavage twice a day, Week 1, before drug 11.15, vehicle 6.78); 1.32 m Eq/L with Zucker fa/fa female rats (0.1 mg/kg oral gavage twice a day, Week 4, before drug 11.15, vehicle 2.79); 1.75 m Eq/L in the assay with Zucker fa/fa female rats (0.1 mg/kg oral gavage twice a day, Week 7, before drug 11.15, vehicle 3.77); 1.45 m Eq/L in the assay with Zucker fa/fa female rats (0.3 mg/kg oral gavage twice a day, Week 1, before drug 13.06, vehicle 6.78); 0.59 m Eq/L in the assay with Zucker fa/fa female rats (0.3 mg/kg oral gavage twice a day, Week 4, before drug 13.06, vehicle 2.79); 0.53 m Eq/L with Zucker fa/fa female rats (0.3 mg/kg oral gavage twice a day, Week 7, before drug 13.06, vehicle 3.77). Moreover, the Cholesterol was determined as 138 mg/dL with Zucker lean male rats (0.1 mg/kg oral gavage twice a day, Week 1, before drug 221, vehicle 191); 189 mg/dL in the assay with Zucker lean male rats (0.1 mg/kg oral gavage twice a day, Week 4, before drug 221, vehicle 224); 148 mg/dL in the assay with Zucker lean male rats (0.1 mg/kg oral gavage twice a day, Week 7, before drug 221, vehicle 215); 138 mg/dL in the assay on Zucker lean male rats (0.3 mg/kg oral gavage twice a day, Week 1, before drug 235, vehicle 191); 174 mg/dL with Zucker lean male rats (0.3 mg/kg oral gavage twice a day, Week 4, before drug 235, vehicle 224); 151 mg/dL in the assay with Zucker lean male rats (0.3 mg/kg oral gavage twice a day, Week 7, before drug 235, vehicle 215). The Cholesterol was 610 mg/dL in the assay on Zucker fa/fa female rats (0.1 mg/kg oral gavage twice a day, Week 1, before drug 1648, vehicle 1186); 733 mg/dL in the assay on Zucker fa/fa female rats (0.1 mg/kg oral gavage twice a day, Week 4, before drug 1648, vehicle 1319); 632 mg/dL in the assay with Zucker fa/fa female rats (0.1 mg/kg oral gavage twice a day, Week 7, before drug 1648, vehicle 923); 350 mg/dL in the assay on Zucker fa/fa female rats (0.3 mg/kg oral gavage twice a day, Week 1, before drug 1908, vehicle 1186); 404 mg/dL in the assay on Zucker fa/fa female rats (0.3 mg/kg oral gavage twice a day, Week 4, before drug 1908, vehicle 1319); 422 mg/dL with Zucker fa/fa female rats (0.3 mg/kg oral gavage twice a day, Week 7, before drug 1908, vehicle 923). For the same molecule, the “Body Weight” value in the assay with Zucker lean male rats (0.1 mg/kg oral gavage twice a day, Week 1, before drug 636, vehicle 610) is listed as 617 g; in the assay on Zucker lean male rats (0.1 mg/kg oral gavage twice a day, Week 4, before drug 636, vehicle 610) it was 592 g; in the assay on Zucker lean male rats (0.1 mg/kg oral gavage twice a day, Week 7, before drug 636, vehicle 632), 597 g; in the assay with Zucker lean male rats (0.3 mg/kg oral gavage twice a day, Week 1, before drug 639, vehicle 610), 608 g; in the assay with Zucker lean male rats (0.3 mg/kg oral gavage twice a day, Week 4, before drug 639, vehicle 610) it was 577 g; in the assay on Zucker lean male rats (0.3 mg/kg oral gavage twice a day, Week 7, before drug 639, vehicle 632) it was 565 g. The “Body Weight” value in the assay on Zucker fa/fa female rats (0.1 mg/kg oral gavage twice a day, Week 1, before drug 665, vehicle 684) came out at 721 g; with Zucker fa/fa female rats (0.1 mg/kg oral gavage twice a day, Week 4, before drug 665, vehicle 700) it was 723 g; with Zucker fa/fa female rats (0.1 mg/kg oral gavage twice a day, Week 7, before drug 665, vehicle 706) it was 710 g; with Zucker fa/fa female rats (0.3 mg/kg oral gavage twice a day, Week 1, before drug 645, vehicle 684) it was 673 g; in the assay on Zucker fa/fa female rats (0.3 mg/kg oral gavage twice a day, Week 4, before drug 645, vehicle 700), 643 g; in the assay with Zucker fa/fa female rats (0.3 mg/kg oral gavage twice a day, Week 7, before drug 645, vehicle 706), 582 g. Also, the Triglycerides with Zucker lean male rats (0.1 mg/kg oral gavage twice a day, Week 1, before drug (after 4 months on high-fat diet) 828, vehicle 718) amounted to 460 mg/dL; with Zucker lean male rats (0.1 mg/kg oral gavage twice a day, Week 4, before drug 828, vehicle 741), 467 mg/dL; in the assay with Zucker lean male rats (0.1 mg/kg oral gavage twice a day, Week 7, before drug 828, vehicle 725), 584 mg/dL; in the assay on Zucker lean male rats (0.3 mg/kg oral gavage twice a day, Week 1, before drug 926, vehicle 718), 527 mg/dL; in the assay on Zucker lean male rats (0.3 mg/kg oral gavage twice a day, Week 4, before drug 926, vehicle 741), 174 mg/dL; in the assay with Zucker lean male rats (0.3 mg/kg oral gavage twice a day, Week 7, before drug 926, vehicle 725), 219 mg/dL. In addition, the Triglycerides with Zucker fa/fa female rats (0.1 mg/kg oral gavage twice a day, Week 1, before drug (after 4 months on high-fat diet) 9310, vehicle 5357) is given as 2717 mg/dL; with Zucker fa/fa female rats (0.1 mg/kg oral gavage twice a day, Week 4, before drug 9310, vehicle 10414), 3913 mg/dL; with Zucker fa/fa female rats (0.1 mg/kg oral gavage twice a day, Week 7, before drug 9310, vehicle 5465), 2627 mg/dL; in the assay on Zucker fa/fa female rats (0.3 mg/kg oral gavage twice a day, Week 1, before drug 9190, vehicle 5357), 1627 mg/dL; with Zucker fa/fa female rats (0.3 mg/kg oral gavage twice a day, Week 4, before drug 9190, vehicle 10414), 687 mg/dL; in the assay on Zucker fa/fa female rats (0.3 mg/kg oral gavage twice a day, Week 7, before drug 9190, vehicle 5465), 538 mg/dL.

For `[3H]C(CCCC)C([3H])CN(CCc1ccc(OC(C)(CC)C(=O)O)cc1)C(=O)Nc1ccc(F)cc1F` (centres unmarked) [Radioligand, 2-(4-(2-(2,3-Ditritio-1-heptyl-3-(2,4-difluorophenyl)ureido)ethyl)phenoxy)-2-methylbutanoic Acid], the “Specific Binding” value in the assay with hPPAR alpha (no competitor minus 10 μM Cold Radioligand) is recorded as 115000 dpm.

(Values after US6306854A, “Chemical compounds” (Glaxosmithkline, priority 1998, dated 2001).)
